Experiment in all cases: inhibition of tumour cell growth, NCI panel, 48 h
Test [1] deals with 786-0 renal.
In test [2] the test system is ACHN renal.
Test [3] relates to CAKI-1 renal.
Test [4] concerns COLO 205 colon.
Test [5] relates to MDA-MB-435.
The subject of test [6] is NCI-H460 lung.
For test [7], the system named is OVCAR-3 ovarian.
Test [8] relates to OVCAR-5 ovarian.
For test [9], the system named is SK-MEL-5 melanoma.
Test [10] has as its system SW-620 colon.

In PubChem BioAssay (NCI) one finds TGI and GI50 data, which are given here for eight compounds.

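Step 1: Grow cells in 96-well plates. Step 2: Expose to compound for 48 hours at 5 concentrations. Step 3: Interpolate endpoints linearly; if unreached, use highest concentration. Abbreviation: GI50, concentration required for 50% inhibition of growth. TGI denotes the concentration required for complete inhibition of growth.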

As for `COc1ccc(C(CC(=O)c2ccc3c(c2)OCO3)c2c(O)c3ccccc3oc2=O)cc1OC` (stereo not given), the TGI in test [1], in test [2], in test [3], in test [4], in test [5] and in [6] was over 100 µM in each case. In addition, the TGI in test [7], in test [8], in test [9] and in test [10] was over 100 µM each time.

As to `COC(c1ccc(C(C)(C)C)cc1)(c1ccc(C(C)(C)C)cc1)c1ccc(C(C)(C)C)cc1`, the TGI in test [1], in [2], in [3], in test [4], in test [5] and in test [6] was over 100 µM each time. In addition, the TGI in test [7], in test [8], in test [9] and in test [10] was over 100 µM each time.

In the case of `O=C(c1ccco1)c1c(C(F)(F)F)n([O-])c2ccc(C(F)(F)F)cc2[n+]1=O`, the GI50 is 0.426 µM in [1]; 0.168 µM in test [2]; 0.224 µM in test [3]; 0.468 µM in test [4]; 1.16 µM in test [5]; 0.434 µM in test [6]. Further, the GI50 in test [7] was 0.383 µM; in test [8] it was 0.38 µM; in [9], 0.508 µM; in [10], 0.159 µM. Also, the TGI in [1] turned out to be 0.831 µM; in test [2] it was 0.362 µM; in test [3], 0.49 µM; in [4], 0.987 µM; in test [5], 2.56 µM; in test [6] it was 1.57 µM. The TGI in [7] was 0.835 µM; in [8], 1.38 µM; in test [9], 1.09 µM; in test [10], 0.338 µM.

Turning to `COc1cc2c(/C=N\N=C(N)N)c[nH]c2cc1C`, the GI50 in [1] is 19.4 µM; in [2], 24.3 µM; in [3] it was 37.5 µM; in test [4], 17.3 µM; in test [5] it was 17 µM; in test [6], 14.7 µM. Further, the GI50 in test [7] was 13.5 µM; in [8] it was 21.4 µM; in [9] it was 17.2 µM; in test [10], 16.1 µM. Moreover, the TGI in test [1] is 46.8 µM; in test [2], over 100 µM; in test [3], over 100 µM; in test [4], 35.1 µM; in [5], 33.2 µM; in test [6] it was 27.8 µM. Moreover, the TGI in [7] turned out to be 27.3 µM; in [8] it was 64 µM; in test [9], 30.9 µM; in [10], 29.6 µM.

Turning to `COC(=O)C1C(O)C(C(=O)OC)C(C)N(C)C1C` (stereo not given), the TGI in test [1], in test [2], in [3], in [4], in [5] and in test [6] was over 100 µM each time. Further, the TGI in test [7], in test [8], in [9] and in test [10] was over 100 µM in each case.

On to `Cc1ccc(OCCOCCOCCOCCOc2ccc(C)n(O)c2=S)c(=S)n1O`, for which the GI50 was 0.335 µM in test [1]; under 0.0147 µM in [2]; under 0.0146 µM in [3]; 0.0484 µM in test [4]; 0.366 µM in test [5]; under 0.01 µM in [6]. In addition, the GI50 in [7] is under 0.01 µM; in test [8], 0.408 µM; in test [9] it was 0.0438 µM; in test [10] it was under 0.0127 µM. In addition, the TGI in test [1] was over 100 µM; in test [2], over 100 µM; in test [3], over 100 µM; in test [4], over 100 µM; in test [5] it was over 100 µM; in test [6], 7.28 µM. The TGI was 50.8 µM in [7], over 100 µM in [8], 11.3 µM in test [9] and over 100 µM in test [10].

In the case of `C#CCOc1cccc(Nc2ncnc3c(NC(=O)C=C)cccc23)c1`, the GI50 in test [1] was 19.1 µM; in [2], 17.8 µM; in test [3], 26.4 µM; in test [4], 24.6 µM; in [5], 7.14 µM; in test [6], 27 µM. Also, the GI50 in [7] is 16.5 µM; in test [8] it was 27.6 µM; in test [9], 14.8 µM; in test [10] it was 25.8 µM. Also, the TGI in test [1] is 52.7 µM; in test [2], 63.4 µM; in [3], over 100 µM; in test [4], 73.4 µM; in test [5], 77.7 µM; in test [6], 80.4 µM. In addition, the TGI was 91.5 µM in test [7], over 100 µM in [8], 33.1 µM in test [9] and over 100 µM in [10].

`CC(C)c1[nH]nc2c1N=C(c1ccccc1Cl)c1cc([N+](=O)[O-])ccc1N2`: the GI50 in test [1] was 5.74 µM; in test [2], 5.45 µM; in [3] it was 2.53 µM; in test [4] it was 10.3 µM; in test [5], 0.87 µM; in test [6], 5.77 µM. In addition, the GI50 was 4.68 µM in [7], 12.2 µM in test [8], 5.33 µM in [9] and 2.2 µM in test [10]. Also, the TGI was over 24 µM in [1]; 20.4 µM in [2]; over 13.7 µM in [3]; over 25 µM in test [4]; over 25 µM in test [5]; 15.9 µM in test [6]. Also, the TGI in test [7] is 13.1 µM; in test [8], over 25 µM; in [9], 16.2 µM; in test [10] it was over 25 µM.
